Assay results reported in ChEMBL document CHEMBL6120978, “Anticancer activity of salinomycin quaternary phosphonium salts” (Eur J Med Chem, 2025).
≈ marks a conversion by molar mass, not a printed value.

Tests used:
[1] = tested on: Staphylococcus epidermidis; experiment: Antimicrobial activity against Staphylococcus epidermidis ATCC 12228 incubated for 18 hrs by twofold microdilution method; format: functional
[2] = tested on: Staphylococcus epidermidis; experiment: Antimicrobial activity against Staphylococcus epidermidis ATCC 35984 incubated for 18 hrs by twofold microdilution method; format: functional
Escherichia coli = experiment: Antimicrobial activity against Escherichia coli ATCC 25922 incubated for 18 hrs by twofold microdilution method; format: functional
Staphylococcus aureus [3] = experiment: Antimicrobial activity against Staphylococcus aureus ATCC 25923 incubated for 18 hrs by twofold microdilution method; format: functional
Staphylococcus aureus [4] = experiment: Antimicrobial activity against Staphylococcus aureus ATCC 29213 incubated for 18 hrs by twofold microdilution method; format: functional
Staphylococcus aureus [5] = experiment: Antimicrobial activity against Staphylococcus aureus ATCC 6538 incubated for 18 hrs by twofold microdilution method; format: functional
[6] = Selectivity index, ratio of IC50 for cytotoxicity against human HaCaT cells to IC50 for cytotoxicity against human MDA-MB-231 cells; format: toxicity, cell-based; conditions: HaCaT cells versus MDA-MB-231 cells, read-out: Ratio IC50
[7] = Selectivity index, ratio of IC50 for cytotoxicity against human HaCaT cells to IC50 for cytotoxicity against human PC-3 cells; format: toxicity, cell-based; conditions: HaCaT cells versus PC-3 cells, read-out: Ratio IC50
SW480 = experiment: Cytotoxicity against human SW480 cells incubated for 72 hrs by MTT assay; format: functional, cell-based; conditions: SW480, 72 h
[8] = Selectivity index, ratio of IC50 for cytotoxicity against chinese hamster V79 cells to IC50 for cytotoxicity against human SW480 cells; format: toxicity, cell-based; conditions: V79 cells versus SW480 cells, read-out: Ratio IC50
[9] = Selectivity index, ratio of IC50 for cytotoxicity against human HaCaT cells to IC50 for cytotoxicity against human SW620 cells; format: toxicity, cell-based; conditions: HaCaT cells versus SW620 cells, read-out: Ratio IC50
[10] = Selectivity index, ratio of IC50 for cytotoxicity against chinese hamster V79 cells to IC50 for cytotoxicity against human A549 cells; format: toxicity, cell-based; conditions: V79 cells versus A549 cells, read-out: Ratio IC50
Staphylococcus aureus [11] = experiment: Antimicrobial activity against Staphylococcus aureus NCTC 4163 incubated for 18 hrs by twofold microdilution method; format: functional
[12] = Cytotoxicity against chinese hamster V79 cells incubated for 72 hrs by MTT assay; format: toxicity, cell-based, Cricetulus griseus
A549 = experiment: Cytotoxicity against human A549 cells incubated for 72 hrs by MTT assay; format: functional, cell-based; conditions: A549, 72 h
PC-3 = experiment: Cytotoxicity against human PC-3 cells incubated for 72 hrs by MTT assay; format: functional, cell-based; conditions: PC-3, 72 h
[13] = Selectivity index, ratio of IC50 for cytotoxicity against chinese hamster V79 cells to IC50 for cytotoxicity against human PC-3 cells; format: toxicity, cell-based; conditions: V79 cells versus PC-3 cells, read-out: Ratio IC50
MDA-MB-231 = experiment: Cytotoxicity against human MDA-MB-231 cells incubated for 72 hrs by MTT assay; format: functional, cell-based; conditions: MDA-MB-231, 72 h
SW-620 = experiment: Cytotoxicity against human SW620 cells incubated for 72 hrs by MTT assay; format: functional, cell-based; conditions: SW-620, 72 h
[14] = Selectivity index, ratio of IC50 for cytotoxicity against chinese hamster V79 cells to IC50 for cytotoxicity against human SW620 cells; format: toxicity, cell-based; conditions: V79 cells versus SW620 cells, read-out: Ratio IC50
Pseudomonas aeruginosa = experiment: Antimicrobial activity against Pseudomonas aeruginosa ATCC 15442 incubated for 18 hrs by twofold microdilution method; format: functional
[15] = Selectivity index, ratio of IC50 for cytotoxicity against chinese hamster V79 cells to IC50 for cytotoxicity against human MDA-MB-231 cells; format: toxicity, cell-based; conditions: V79 cells versus MDA-MB-231 cells, read-out: Ratio IC50
[16] = Selectivity index, ratio of IC50 for cytotoxicity against human HaCaT cells to IC50 for cytotoxicity against human A549 cells; format: toxicity, cell-based; conditions: HaCaT cells versus A549 cells, read-out: Ratio IC50
[17] = Cytotoxicity against human HaCaT cells incubated for 72 hrs by MTT assay; format: toxicity, cell-based
[18] = Selectivity index, ratio of IC50 for cytotoxicity against human HaCaT cells to IC50 for cytotoxicity against human SW480 cells; format: toxicity, cell-based; conditions: HaCaT cells versus SW480 cells, read-out: Ratio IC50

Structure (SMILES)	MIC [1]	MIC [2]	MIC (Escherichia coli)	MIC (Staphylococcus aureus [3])	MIC (Staphylococcus aureus [4])	MIC (Staphylococcus aureus [5])	selectivity ratio [6]	selectivity ratio [7]	IC50 (SW480)	selectivity ratio [8]	selectivity ratio [9]	selectivity ratio [10]	MIC (Staphylococcus aureus [11])	IC50 at 72 h [12]	IC50 (A549)	IC50 (PC-3)	selectivity ratio [13]	IC50 (MDA-MB-231)	IC50 (SW-620)	selectivity ratio [14]	also measured
O=C(O)c1cn(C2CC2)c2cc(N3CCNCC3)c(F)cc2c1=O [CIPROFLOXACIN]	0.125 µg/mL (≈ 0.377 µM)	0.125 µg/mL (≈ 0.377 µM)	0.007 µg/mL (≈ 0.0211 µM)	0.25 µg/mL (≈ 0.754 µM)	0.25 µg/mL (≈ 0.754 µM)																
CC[C@@H](C(=O)[C@@H](C)[C@@H](O)[C@H](C)[C@@H]1O[C@@H]([C@@H](CC)C(=O)OCCCC[P+](c2ccc(OC)cc2)(c2ccc(OC)cc2)c2ccc(OC)cc2)CC[C@@H]1C)[C@H]1O[C@]2(C=C[C@@H](O)[C@]3(CC[C@@](C)([C@H]4CC[C@](O)(CC)[C@H](C)O4)O3)O2)[C@H](C)C[C@@H]1C.[Br-]	16 µg/mL	8 µg/mL	> 256 µg/mL	4 µg/mL	64 µg/mL	4 µg/mL	0.8	0.5	0.73 µM	0.9	0.9	1	4 µg/mL	0.67 µM	0.66 µM	2.24 µM	0.3	1.42 µM	1.28 µM	0.5	MIC (Pseudomonas aeruginosa): > 256 µg/mL; selectivity ratio [15]: 0.5; selectivity ratio [16]: 1.7; IC50 at 72 h [17]: 1.12 µM; selectivity ratio [18]: 1.5
CC[C@@H](C(=O)[C@@H](C)[C@@H](O)[C@H](C)[C@@H]1O[C@@H]([C@@H](CC)C(=O)OCCCCCC[P+](c2ccc(OC)cc2)(c2ccc(OC)cc2)c2ccc(OC)cc2)CC[C@@H]1C)[C@H]1O[C@]2(C=C[C@@H](O)[C@]3(CC[C@@](C)([C@H]4CC[C@](O)(CC)[C@H](C)O4)O3)O2)[C@H](C)C[C@@H]1C.[Br-]	8 µg/mL	8 µg/mL	> 256 µg/mL	8 µg/mL	8 µg/mL	4 µg/mL	1.1	0.5	0.53 µM	1.1	0.8	0.7	4 µg/mL	0.6 µM	0.92 µM	1.4 µM	0.4	0.6 µM	0.81 µM	0.7	MIC (Pseudomonas aeruginosa): > 256 µg/mL; selectivity ratio [15]: 1; selectivity ratio [16]: 0.7; IC50 at 72 h [17]: 0.63 µM; selectivity ratio [18]: 1.2
CC[C@@H](C(=O)[C@@H](C)[C@@H](O)[C@H](C)[C@@H]1O[C@@H]([C@@H](CC)C(=O)OCCCC[P+](c2ccccc2OC)(c2ccccc2OC)c2ccccc2OC)CC[C@@H]1C)[C@H]1O[C@]2(C=C[C@@H](O)[C@]3(CC[C@@](C)([C@H]4CC[C@](O)(CC)[C@H](C)O4)O3)O2)[C@H](C)C[C@@H]1C.[Br-]	2 µg/mL	2 µg/mL	256 µg/mL	2 µg/mL	2 µg/mL	2 µg/mL	1.3	1.1	0.56 µM	1.1	0.8	0.9	2 µg/mL	0.64 µM	0.7 µM	0.88 µM	0.7	0.74 µM	1.25 µM	0.5	MIC (Pseudomonas aeruginosa): 256 µg/mL; selectivity ratio [15]: 0.9; selectivity ratio [16]: 1.3; IC50 at 72 h [17]: 0.94 µM; selectivity ratio [18]: 1.7
CC[C@@H](C(=O)[C@@H](C)[C@@H](O)[C@H](C)[C@@H]1O[C@@H]([C@@H](CC)C(=O)OCCCCCC[P+](c2ccccc2)(c2ccccc2)c2ccccc2)CC[C@@H]1C)[C@H]1O[C@]2(C=C[C@@H](O)[C@]3(CC[C@@](C)([C@H]4CC[C@](O)(CC)[C@H](C)O4)O3)O2)[C@H](C)C[C@@H]1C.[Br-]	2 µg/mL	2 µg/mL	256 µg/mL	2 µg/mL	2 µg/mL	2 µg/mL	0.3	0.4	0.71 µM	0.9	0.3	0.9	2 µg/mL	0.63 µM	0.72 µM	1.85 µM	0.3	2.65 µM	2.57 µM	0.2	MIC (Pseudomonas aeruginosa): 256 µg/mL; selectivity ratio [15]: 0.2; selectivity ratio [16]: 1.1; IC50 at 72 h [17]: 0.78 µM; selectivity ratio [18]: 1.1
COc1cccc2c1C(=O)c1c(O)c3c(c(O)c1C2=O)C[C@@](O)(C(=O)CO)C[C@@H]3O[C@H]1C[C@H](N)[C@H](O)[C@H](C)O1 [DOXORUBICIN]														2.01 µM	0.63 µM			0.83 µM			
CC[C@@H](C(=O)[C@@H](C)[C@@H](O)[C@H](C)[C@@H]1O[C@@H]([C@@H](CC)C(=O)OCCCCCC[P+](c2ccccc2)(c2ccccc2)c2ccc(N(C)C)cc2)CC[C@@H]1C)[C@H]1O[C@]2(C=C[C@@H](O)[C@]3(CC[C@@](C)([C@H]4CC[C@](O)(CC)[C@H](C)O4)O3)O2)[C@H](C)C[C@@H]1C.[Br-]	8 µg/mL	8 µg/mL	> 256 µg/mL	8 µg/mL	8 µg/mL	8 µg/mL	0.8	0.5	0.58 µM	1	1	0.7	8 µg/mL	0.6 µM	0.85 µM	1.47 µM	0.4	0.88 µM	0.71 µM	0.8	MIC (Pseudomonas aeruginosa): > 256 µg/mL; selectivity ratio [15]: 0.7; selectivity ratio [16]: 0.8; IC50 at 72 h [17]: 0.71 µM; selectivity ratio [18]: 1.2
CC[C@@H](C(=O)[C@@H](C)[C@@H](O)[C@H](C)[C@@H]1O[C@@H]([C@@H](CC)C(=O)OCCCCCC[P+](c2ccc(C)cc2)(c2ccc(C)cc2)c2ccc(C)cc2)CC[C@@H]1C)[C@H]1O[C@]2(C=C[C@@H](O)[C@]3(CC[C@@](C)([C@H]4CC[C@](O)(CC)[C@H](C)O4)O3)O2)[C@H](C)C[C@@H]1C.[Br-]	16 µg/mL	16 µg/mL	> 256 µg/mL	16 µg/mL	8 µg/mL	8 µg/mL	1.3	0.7	0.61 µM	1.1	1.5	0.7	8 µg/mL	0.67 µM	0.98 µM	1.58 µM	0.4	0.83 µM	0.72 µM	0.9	MIC (Pseudomonas aeruginosa): > 256 µg/mL; selectivity ratio [15]: 0.8; selectivity ratio [16]: 1.1; IC50 at 72 h [17]: 1.05 µM; selectivity ratio [18]: 1.7
CCCC[P+](CCCC)(CCCC)CCCCCCOC(=O)[C@H](CC)[C@H]1CC[C@H](C)[C@H]([C@@H](C)[C@H](O)[C@H](C)C(=O)[C@H](CC)[C@H]2O[C@]3(C=C[C@@H](O)[C@]4(CC[C@@](C)([C@H]5CC[C@](O)(CC)[C@H](C)O5)O4)O3)[C@H](C)C[C@@H]2C)O1.[Br-]	2 µg/mL	2 µg/mL	> 256 µg/mL	2 µg/mL	2 µg/mL	2 µg/mL	0.6	0.2	0.5 µM	1.3	0.9	0.6	2 µg/mL	0.65 µM	1.05 µM	2.89 µM	0.2	1.02 µM	0.67 µM	1	MIC (Pseudomonas aeruginosa): > 256 µg/mL; selectivity ratio [15]: 0.6; selectivity ratio [16]: 0.6; IC50 at 72 h [17]: 0.62 µM; selectivity ratio [18]: 1.2
